In US8362227B2, “Detection of clostridium difficile” (Mayo Foundation for Medical Education and Research, priority 2008, dated 2013):

Tested on: C. difficile culture positive isolates
Experiment: Agar dilution MIC testing of anaerobes (moxifloxicin susceptibility)
Format: cell-based, Clostridium difficile
Settings: for Susceptibility to Moxifloxicin, I = 4 (number of specimens): I = intermediate; for Susceptibility to Moxifloxicin, I = 4 (number of specimens) / Susceptibility to Moxifloxicin, R > 8 (number of specimens) / Susceptibility to Moxifloxicin, S ≦ 2 (number of specimens): agar dilution; for Susceptibility to Moxifloxicin, R > 8 (number of specimens): R = resistant; for Susceptibility to Moxifloxicin, S ≦ 2 (number of specimens): S = susceptible
Description: Moxifloxicin susceptibility testing by agar dilution was performed on all C. difficile culture positive isolates. Growth from subculture plates was suspended in pre-reduced Schaedler's broth to McFarland 0.5 turbidity. A Steers replicator seed block was used to inoculate the moxifloxicin plate from lowest to highest dilution. The inoculated media was incubated under anaerobic conditions for 48 hours before endpoint determination was read. The testing was performed and interpreted as defined in CLSI document M11-A7.

[1] = LIGHTCYCLER PCR bp deletions demonstrated in tcdC
[2] = LIGHTCYCLER PCR no deletions demonstrated

## COc1c(N2C[C@@H]3CCCN[C@@H]3C2)c(F)cc2c(=O)c(C(=O)O)cn(C3CC3)c12 [Moxifloxicin]
13 specimens with the tcdC gene deletions
  specimens with tcdC gene deletions showing resistance to moxifloxicin: 46%
[1]
  Susceptibility to Moxifloxicin, I = 4 (number of specimens): 0
  Susceptibility to Moxifloxicin, R > 8 (number of specimens): 6
  Susceptibility to Moxifloxicin, S ≦ 2 (number of specimens): 7
[2]
  Susceptibility to Moxifloxicin, I = 4 (number of specimens): 2
  Susceptibility to Moxifloxicin, R > 8 (number of specimens): 7
  Susceptibility to Moxifloxicin, S ≦ 2 (number of specimens): 20
Total, all 49 C. difficile culture positive isolates, intermediate at 4 μg/mL
  Susceptibility to Moxifloxicin, I = 4 (number of isolates): 2
Total, all 49 C. difficile culture positive isolates, intermediate at 4 μg/mL, listed as moxifloxicin
  Susceptibility to Moxifloxicin, I = 4 (number of isolates): two
Total, all 49 C. difficile culture positive isolates, resistant
  Susceptibility to Moxifloxicin, R > 8 (number of isolates): 13
Total, all 49 C. difficile culture positive isolates, susceptible at ≦2 μg/mL
  Susceptibility to Moxifloxicin, S ≦ 2 (number of isolates): 32
Total, all 49 C. difficile culture positive isolates, susceptible at ≦2 μg/mL, listed as moxifloxicin
  Susceptibility to Moxifloxicin, S ≦ 2 (number of isolates): Thirty-two
Intermediate at 4 μg/mL, 49 C. difficile culture positive isolates
  culture positive isolates intermediate to moxifloxicin: 4%
Resistant at ≧8 μg/mL, 49 C. difficile culture positive isolates
  culture positive isolates resistant to moxifloxicin: 26%
Susceptible at ≦2 μg/mL, 49 C. difficile culture positive isolates
  culture positive isolates susceptible to moxifloxicin: 65%
